For the assay, the target named is T1, ERG-ETS domain (Homo sapiens, UniProt P11308).
T1 construct: A pET28a plasmid encoding residues 307–400 of the ERG-ETS domain; His6 (cleaved yes); made in house; host or cells: E. coli BL21 (λDE3)
T1 sequence (P11308 307-400): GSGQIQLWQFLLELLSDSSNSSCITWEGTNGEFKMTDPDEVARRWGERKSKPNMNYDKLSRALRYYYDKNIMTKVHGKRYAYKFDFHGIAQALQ
The assay is described as follows: NMR-monitored titration (15N-HSQC) with ERG-ETS domain. Particulars: 15N-HSQC titration, 1:1 binding isotherm; pH 6.5; read-out: KD for interaction with recombinant ERG-ETS domain. The protocol: ERG-ETS domain expression and purification. A pET28a plasmid encoding residues 307–400 of the ERG-ETS domain was expressed in E. coli BL21 (λDE3). Cultures of 1 L were grown at 37°C in M9 media supplied with 3 gm/L ^13C6-glucose and/or 1 gm/L ^15NH4Cl. Cells were allowed to grow to O.D.600 = 0.6 and protein expression was induced by adding 1 mM IPTG. After an induction time of 4 h, cells were harvested by centrifugation and stored at −80 °C for at least 1 round of freeze/thaw. Cells were resuspended in 40 mL of lysis buffer for every 1 L of culture. Cells were lysed by passing through 5 rounds of homogenization and 10 mins of sonication. The cell lysate centrifuged at 15k rpm for 1 hr, and the supernatant subjected to nickel column purification. The column was washed using 25 mM imidazole (50 mM phosphate, 1 M NaCl, pH 7.4) and proteins were eluted with 1 M imidazole. Fractions containing the ETS domain were confirmed by SDS-PAGE and pooled. […] NMR data were recorded at 25 or 28°C on cryoprobe-equipped 850 MHz Bruker Avance III spectrometer. Data were processed and analyzed using NMRpipe and Sparky. […] NMR-monitored titrations. Interactions of compounds with the ERG-ETS domain were monitored via sensitivity-enhanced ^15N-HSQC spectra. […] Chemical shift perturbations were calculated from the combined amide ^1H^N and ^15N shift changes as Δδ = [(0.2 × ΔδN)^2 + (ΔδH)^2]^1/2. […]

Turning to `CC(C)c1ccc(C=N/N=C2\NC(=O)[C@@H](CC(=O)O)S2)cc1` (stereo in doubt) [VPC-18005, 2-((Z)-2-(((Z)-4-isopropylbenzylidene)hydrazono)-4-oxothiazolidin-5-yl)acetic acid], the Kd (in general, the free concentration of one partner at which half of the binding sites on the other are occupied at equilibrium, for simple one-to-one binding) is ~3 mM.

The record behind these values is PMC5522078, “Discovery and characterization of small molecules targeting the DNA-binding ETS domain of ERG in prostate cancer” (Oncotarget, 2017).
